Results: ChEMBL document CHEMBL1201862, “PubChem BioAssay data set” (2004)
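Step 1: Grow cells in 96-well plates. Step 2: Expose to compound for 48 hours at 5 concentrations. Step 3: Interpolate endpoints linearly; if unreached, use highest concentration. GI50 = concentration required for 50% inhibition of growth.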 The source made the active and inactive calls. Rule as the data show it: active = GI50 up to about 1.1 µM and inactive = higher.

Columns and labels:
Assay in all cases: NCI tumour cell line growth inhibition, 48 h
[1] = tested on: HT-29
[2] = tested on: HCC 2998
[3] = tested on: 786-0
[4] = tested on: NCI-H226
[5] = tested on: EKVX
[6] = tested on: LOX IMVI
[7] = tested on: CCRF-CEM
[8] = tested on: MOLT-4
[9] = tested on: SK-MEL-2
[10] = tested on: RPMI-8226
[11] = tested on: UO-31
[12] = tested on: SW-620
[13] = tested on: SNB-75
[14] = tested on: HOP-92

| SMILES | GI50 [1] | GI50 [2] | GI50 [3] | GI50 [4] | GI50 [5] | GI50 [6] | GI50 [7] | GI50 [8] | GI50 [9] | GI50 [10] | GI50 [11] | GI50 [12] | GI50 [13] | GI50 [14] |
| --- | --- | --- | --- | --- | --- | --- | --- | --- | --- | --- | --- | --- | --- | --- |
| O=C(Cc1ccccc1)NN1C(=O)C(Cl)C1c1cccc(O)c1 (stereo unspecified) | 16.7 µM (inactive) | 20.2 µM (inactive) | 13.2 µM (inactive) | 21.7 µM (inactive) | 18.6 µM (inactive) | 13.5 µM (inactive) | 3.06 µM (inactive) | 7.69 µM (inactive) | 27 µM (inactive) | 2.84 µM (inactive) | 15.9 µM (inactive) | 5.2 µM (inactive) | 26.5 µM (inactive) | – |
| CCOC(=O)C(C)(C)Oc1ccc2c(-c3ccc(Cl)cc3)c(-c3ccc(Cl)cc3)c(=O)oc2c1 | > 100 µM (inactive) | > 100 µM (inactive) | > 100 µM (inactive) | 62.2 µM (inactive) | > 100 µM (inactive) | > 100 µM (inactive) | > 100 µM (inactive) | > 100 µM (inactive) | > 100 µM (inactive) | 80 µM (inactive) | > 100 µM (inactive) | > 100 µM (inactive) | > 100 µM (inactive) | – |
| CCOC(=O)C(C)(C)Oc1ccc2c(-c3ccccc3)cc(=O)oc2c1 | > 10 µM (inactive) | 98.4 µM (inactive) | 33.7 µM (inactive) | 33.3 µM (inactive) | 43 µM (inactive) | 20.2 µM (inactive) | 21.7 µM (inactive) | 20.2 µM (inactive) | 22.6 µM (inactive) | 18.1 µM (inactive) | 23 µM (inactive) | 36.7 µM (inactive) | 12.9 µM (inactive) | – |
| CN(C)CCNC(=O)c1cccc2c1nc(-c1ccc(F)cc1)c1ccccc12 | 3.85 µM (inactive) | 3.34 µM (inactive) | 4.65 µM (inactive) | 2.06 µM (inactive) | 9.38 µM (inactive) | 1.83 µM (inactive) | 1.97 µM (inactive) | 0.232 µM (active) | 10.3 µM (inactive) | – | 1.64 µM (inactive) | 2.27 µM (inactive) | 10.7 µM (inactive) | 2.45 µM (inactive) |
| Nc1nc(O)c2c(ncn2CC(O)CO)n1 (stereo unspecified) | > 100 µM (inactive) | – | > 100 µM (inactive) | > 100 µM (inactive) | > 100 µM (inactive) | > 100 µM (inactive) | > 100 µM (inactive) | – | > 100 µM (inactive) | > 100 µM (inactive) | > 100 µM (inactive) | > 100 µM (inactive) | > 100 µM (inactive) | > 100 µM (inactive) |
| CCOc1ccccc1Nc1nc(C)c(C(=O)CC(=O)C(=O)Nc2ccccc2)s1 | 37.1 µM (inactive) | 52.7 µM (inactive) | 99.8 µM (inactive) | 24.3 µM (inactive) | 42.4 µM (inactive) | 40.7 µM (inactive) | 39.1 µM (inactive) | 23.8 µM (inactive) | 37.3 µM (inactive) | – | 32.2 µM (inactive) | 72.4 µM (inactive) | 25.2 µM (inactive) | 36.6 µM (inactive) |
| CC1(OCc2ccccc2)C(=O)N2C1N(C(=O)OCc1ccccc1)CC2(C)C (stereo unspecified) | 67.8 µM (inactive) | > 100 µM (inactive) | > 100 µM (inactive) | 41.4 µM (inactive) | 67.8 µM (inactive) | 46.6 µM (inactive) | 35.1 µM (inactive) | 28.2 µM (inactive) | 69.3 µM (inactive) | 27.5 µM (inactive) | 31.4 µM (inactive) | > 100 µM (inactive) | 32.4 µM (inactive) | – |
| C=CC(Br)(CBr)CCC(Br)C(C)(C)Br (stereo unspecified) | 13.2 µM (inactive) | – | 12.9 µM (inactive) | 18.1 µM (inactive) | – | 12.4 µM (inactive) | – | 9.51 µM (inactive) | 13.6 µM (inactive) | 2.79 µM (inactive) | 15.2 µM (inactive) | 13.7 µM (inactive) | 10.3 µM (inactive) | 15.7 µM (inactive) |
